Tests used:
[1] = system: ALS7 (C9orf72) cell-derived motor neurons; assay: RNA foci inhibitory activity (FISH with Cy3 probe, high-content analysis); assay type: cell-based, human; conditions: one day after addition, vs DMSO
From the text: Using ALS7 (C9orf72) cell line described in K. Imamura et al, Science Translational Medicine 2017, 9, eaaf3962, the effect of the compound used in the present invention on RNA foci was examined. The cell line is stable cell line prepared by introducing the tetracycline-induced Lhx3, Ngn2 and Isl1 genes into iPS cell lines established from a familial ALS patient with abnormal expansion of the G4C2 repeat of the C9orf72 gene. Therefore, ALS7 (C9orf72) cell is an ALS cell model that rapidly (within about 7 days) differentiates into motor neurons when tetracycline or a derivative thereof is added to the medium, and after differentiation, spontaneously goes on to cell death (see the above documents). […] ALS7 (C9orf72) cells were cultured on feeder cells (mitomycin-treated SNL cells) using an iPS cell maintenance medium consisting of Primate ES Cell medium (ReproCell, […]), 4 ng/ml hbFGF (Wako, 060-04543), 50 μg/ml G418 (Nacalai, 09380-86) and Penicillin-Streptomycin (Thermo Fisher Scientific, 15140-122). The method for seeding ALS7 (C9orf72) cells on an assay plate is as follows. Matrigel (BD Falcon, D2650) was diluted 20-fold with an assay medium consisting of DMEM/F-12 (1:1) (Thermo Fisher Scientific, 11330-057), N2 supplement (Thermo Fisher Scientific, 17502-048), Penicillin-Streptomycin (Thermo Fisher Scientific, 15140-122), 10 ng/ml recombinant human BDNF (PeproTech, 450-02), 10 ng/ml recombinant human GDNF (PeproTech, 450-10), 10 ng/ml recombinant human NT-3 (PeproTech, 450-03), 1 μM Retinoic acid (Sigma, R2625), 1 μg/ml Doxycycline (Clontech, 631311), 1 μM SAG (Enzo life sciences, ALX-270-426-M001) and 10 μ[…] (Wako, 253-00513), and then a 384-well plate (CellCarrier-384 Ultra, PerkinElmer, 6057300) was coated with the diluted solution. The ALS7 (C9orf72) cells were then suspended in the assay medium, and seeded on the matrigel-coated assay plate at 1×10^4 cells per well. The fluorescent staining method of RNA foci in motor neurons differentiated from ALS7 (C9orf72) cells is as follows. For the ALS7 (C9orf72) cells seeded on the assay plate according to the method described in the previous section, the assay medium containing no Y-27632 was added to the plate four days after seeding, and the cells were cultured. Seven days after seeding, the assay medium (Retinoic Acid, Doxycycline, SAG, Y-27632-free) containing the test compound at a predetermined concentration was added to the plate by medium exchange, and one day after addition of the test compound, PFA (Wako, 163-20145) was added to the plate to fix the cells. After washing with PBS (Wako, 045-29795) was repeated three times, ice-cold methanol (Wako, 131-01826) was added to the plate, and the plate was allowed to stand for 10 minutes at room temperature. DNA probe [[NT] ID NO:1), SIGMA genosys, custom synthesis] was denatured at 80° C. for 75 sec, prepared to 2 μg/μL in a hybri buffer consisting of 50% formamide (Wako, 066-02301), 2×SSC (Nippon Gene, 319-90015), 50 mM sodium phosphate (TEKNOVA, […]), 10% Dextran sulfate (SIGMA, […]), 0.1 mg/mL yeast tRNA ([…], 15401029) and RNase free water (QIAGEN, 129112), and added to the plate, and the plate was allowed to stand at 37° C. for 16 to 24 hrs to bind the probe to the RNA foci. A wash buffer consisting of 50% formamide, 1×SSC and RNase free water was added to the plate, and the plate was allowed to stand at 37° C. for 30 minutes, followed by washing with PBS. Hoechst (invitrogen, H3569) diluted 5000-fold with by PBS was added to the plate, and the plate was allowed to stand for 20 minutes at room temperature to stain the cell nuclei, followed by washing with PBS. The RNA foci in the cell nuclei were detected by analyzing the above treated plate (measuring Cy3 fluorescence) with a high-content analyzer. The high-content analyzer used was Opera Phenix from PerkinElmer. […] The method for detecting the activity of the test compound is as follows.

[2] = system: ALS7 (C9orf72) cell-derived motor neurons; assay: Cytotoxicity: intracellular ATP level (CellTiter-Glo); assay type: cell-based, human
Procedure: In order to examine the cytotoxicity of the test compound, the intracellular ATP level was measured.
ALS7 (C9orf72) cells were seeded on an assay plate in the same procedure as in Experimental Example 1. Four days after seeding, the assay medium containing no Y-27632 was added to the plate, and the cells were cultured until seven days after seeding, and the assay medium (Retinoic Acid, Doxycycline, SAG, Y-27632-free) containing the test compound at a predetermined concentration was added to the plate by medium exchange. 24 hr or 48 hr after addition of the test compound, the medium was removed, and CellTiter-Glo Luminescent Cell Viability Assay (Promega, G7570) was performed.
The method for detecting the cytotoxicity of the test compound is as follows.
As a negative control, the cells cultured in the assay medium supplemented with DMSO instead of the test compound were used.
The degree of the effect on the intracellular ATP level in the test compound-treated cells was defined as the ATP level of the test compound compared with the negative control, which was calculated by the following formula.
ATP level of the test compound compared to the negative control=X/C×100
X: ATP level in the test compound group, C: ATP level in the DMSO group
When the intracellular ATP level was less than 0.5 times or more than 1.5 times the intracellular ATP level in the negative control, it was judged to be cytotoxic.

Compound | RNA foci inhibitory activity % ([1]; 1 μM test compound) [%] | RNA foci inhibitory activity % ([1]; 3 μM test compound) [%] | RNA foci inhibitory activity % ([1]; 10 μM test compound) [%] | ATP level % compared to negative control ([2]; After 24 hr, 1 μM) [%] | ATP level % compared to negative control ([2]; After 24 hr, 3 μM) [%] | ATP level % compared to negative control ([2]; After 24 hr, 10 μM) [%] | ATP level % compared to negative control ([2]; After 48 hr, 1 μM) [%] | ATP level % compared to negative control ([2]; After 48 hr, 3 μM) [%] | ATP level % compared to negative control ([2]; After 48 hr, 10 μM) [%]
COc1cc(Cl)ccc1-c1ncnc(Nc2cccc(CS(N)(=O)=O)c2)n1 [Compound No. 3, 1-(3-{[4-(4-chloro-2-methoxyphenyl)-1,3,5-triazin-2-yl]amino}phenyl)methanesulfonamide] | 16 | 55 | 51 | 104 | 97 | 106 | 105 | 87 | 69
COc1ccccc1-c1ncnc(Nc2cccc(CS(N)(=O)=O)c2)n1 [Compound No. 2, 1-(3-{[4-(2-methoxyphenyl)-1,3,5-triazin-2-yl]amino}phenyl)methanesulfonamide] | 20 | 49 | 55 | 98 | 89 | 101 | 99 | 74 | 53
NS(=O)(=O)Cc1cccc(Nc2ncnc(-c3ccccc3OCc3ccccc3)n2)c1 [Compound No. 4b, 1-[3-({4-[2-(benzyloxy)phenyl]-1,3,5-triazin-2-yl}amino)phenyl]methanesulfonamide] | 52 | 41 | 47 | 105 | 121 | 134 | 73 | 97 | 102
CS(=N)(=O)Cc1cccc(Nc2ncnc(-c3ccccc3OCc3ccc(Cl)c(Cl)c3)n2)c1 (stereo not drawn) [Compound No. 5, 4-{2-[(3,4-dichlorophenyl)methoxy]phenyl}-N-{3-[(S-methanesulfonimidoyl)methyl]phenyl}-1,3,5-triazin-2-amine] | 61 | 44 | 50 | 98 | 118 | 131 | 83 | 94 | 108
NS(=O)(=O)Cc1cccc(Nc2ncnc(-c3ccccc3OCc3ccccc3)n2)c1.O=C(O)C(F)(F)F [Compound No. 4a, 1-[3-({4-[2-(benzyloxy)phenyl]-1,3,5-triazin-2-yl}amino)phenyl]methanesulfonamide trifluoroacetate] | 50 | 45 | 45 | 113 | 128 | 140 | 80 | 101 | 115
COc1cc(F)ccc1-c1ncnc(Nc2cccc(CS(C)(=N)=O)c2)n1 (stereo not drawn) [Compound No. 1, 4-(4-fluoro-2-methoxyphenyl)-N-{3-[(S-methanesulfonimidoyl)methyl]phenyl}-1,3,5-triazin-2-amine] | 48 | 58 | 46 | 92 | 107 | 134 | 91 | 89 | 122
CCOC(=O)N=S(C)(=O)Cc1cccc(Nc2ncnc(-c3cccc4c3OCC4)n2)c1 (stereo not drawn) [Compound No. 7, ethyl {[(3-{[4-(2,3-dihydro-1-benzofuran-7-yl)-1,3,5-triazin-2-yl]amino}phenyl)methyl](methyl)oxo-λ^6-sulfanylidene}carbamate] | 47 | 55 | 43 | 89 | 105 | 126 | 86 | 87 | 112
CCOC(=O)N=S(C)(=O)Cc1cccc(Nc2ncnc(-c3cccc4c3OCCO4)n2)c1 (stereo not drawn) [Compound No. 6, ethyl {[(3-{[4-(2,3-dihydro-1,4-benzodioxin-5-yl)-1,3,5-triazin-2-yl]amino}phenyl)methyl](methyl)oxo-λ^6-sulfanylidene}carbamate] | 62 | 48 | 48 | 89 | 107 | 130 | 77 | 71 | 124
